From patent publication US20150231130A1, “PHARMACEUTICAL COMPOSITION COMPRISING DIAMORPHINE FOR INTRANASAL ADMINISTRATION” (WOCKHARDT LIMITED, priority 2012, published 2015)
Entries after “also recorded” stand apart in the source; their conditions may differ.

Assays:
[1] = system: human plasma proteins; conditions: cited from earlier work
[2] = Respiratory depression (clinically notable changes in vital signs) in the clinical study; type: in vivo, children; conditions: single intranasal dose, 0.1 mg/kg body weight
From the text: (§1) An open label, single dose, sparse sampling pharmacokinetic dentate study in children aged from 1-<16 years attending hospital clinics for minor day surgery or laser treatment and requiring intravenous cannulation and opiate analgesia for their routine clinical management. The cannulation site on the child's arm was numbed with local anaesthetic cream, and a cannula was inserted. The child was then anaesthetized and a baseline blood sample taken. The child received 1-3 sprays of intranasal diamorphine, depending on their weight, and another blood sample was taken as soon as possible (from 0-10 minutes) post dose. Up to four further pharmacokinetic blood samples were taken from the cannula for the purposes of the study spaced out over the following time windows: 10-20 minutes, 20-30 minutes, 30-45 minutes, 45-60 minutes, 60-120 minutes and between 120 minutes post dose and removal of the cannula. Plasma acetylmorphine, morphine, morphine-3-glucuronide, and morphine-6-glucuronide concentrations were determined. The data from all children taking part in the trial was pooled and analysed together to avoid excessive blood sampling. Population pharmacokinetic parameters were estimated by using a non-linear mixed effects dentate approach. Adverse events, vital signs, nasal tolerance and pain scores were also monitored. […]

[3] = cited from earlier work
[4] = FLACC total pain scores, open label single dose clinical study of diamorphine hydrochloride nasal spray in children; type: in vivo; conditions: 0.1 mg/kg body weight intranasally; children aged 1-<16 years
From the text: as §1, with “Up to four further pharmacokinetic blood samples were taken from the cannula for the purposes of the study spaced out over the following time windows: 10-20 minutes, 20-30 minutes, 30-45 minutes, 45-60 minutes, 60-120 minutes and between 120 minutes post dose and removal of the cannula.” left out, “Population pharmacokinetic parameters were estimated by using a non-linear mixed effects dentate approach.” left out
For assessing the effectiveness of the Diamorphine Hydrochloride Nasal Spray pain scores were measured. The investigators or nurses measured the FLACC scores. The total score was based on 5 categories: (F) Face; (L) Legs; (A) Activity; (C) Cry; (C) Consolability; are scored between […]. […]

[5] = 0.1 mg/kg of body weight, intravenous injection; cited from earlier work
[6] = in presence of water degrades; cited from earlier work
[7] = Adverse events, open label single dose clinical study of diamorphine hydrochloride nasal spray in children; type: in vivo; conditions: single intranasal dose
From the text: as §1

CC(=O)Oc1ccc2c3c1OC1[C@@H](OC(C)=O)C=C[C@H]4[C@@H](C2)N(C)CC[C@]314 (some centres unmarked) [diamorphine, 3,6-diacetyl ester of morphine]
Protein binding (in words) [1]: does not bind to protein | Respiratory depression (clinically notable changes in vital signs) [2]: free from the major side effects such as respiratory depression; also recorded: No respiratory depressant effect was observed | half-life ([3]; in man): two to three | Duration of analgesic effect ([3]; in vivo): three to four | Analgesic effectiveness (in words) [4]: effective alone in producing the analgesic effects | Respiratory depressant effect (in words) [5]: respiratory depressant effect is reported | Stability in liquid dosage form (in words) [6]: highly unstable in liquid dosage form | Incidence of adverse events (in words) [7]: very low
